Data published in patent publication US12178825B2, “Method and compositions for forming a copper-containing complex and uses thereof” (COLD SPRING HARBOR LABORATORY, priority 2017, dated 2024).
“Also recorded” adds a separate entry of the source.

Key:
[1] = tested on: ATP7B-knockdown HepG2 cells; assay: Copper-induced toxicity, MTT cell survival; assay type: cell-based; conditions: DPM-1001 2 μM; ATP7B-knockdown HepG2
Method: HepG2 cells purchased from ATCC were cultured in RPMI media containing 10% FBS, 5% CO2 at 37 C. Control (AG09319) and Wilson's disease patient-derived fibroblasts (GM00032, GM00033, GM05257, GM12158, GM05798 and GM11778) were obtained from Coriell Biorepository and cultured in DMEM, 10% FBS, 5% CO2 at 37° C.
For cell survival assays, 10,000 cells were seeded in a 96 well plate and cultured until fully confluent (90%). To these cells, ATP7B siRNAs or scrambled siRNA (negative control) purchased from Qiagen and Santa Cruz Biotechnology were transfected. Lipofectamine RNAiMAX reagent (Thermofischer) and siRNAs were diluted into a final volume of 100 μl in Opti-MEM (Gibco). The mixture was incubated at room temperature for 30 min, following which 800 μl of Opti-MEM was added to the mixture. The above transfection solution was overlaid onto cells at a final concentration of 5 nM siRNA. Transfection of HepG2 cells with scrambled siRNA served as negative control. Twelve hours after the transfection, complete media was added to each well. Following which, knockdown efficiency was checked (24 hours later) and cells were exposed to varying concentration of copper (0-1 mM) for 12 h and cell viability was determined using the MTT assay as previously described (37). […]

[2] = ESI-MS analysis of complex formation with a series of other metal ions; assay type: binding; conditions: panel of metals
Method: Eight equivalents of M(NO3)2·xH2O or MSO4·xH2O were reacted with 1 eq. of DPM-1001, DPM-1003 or analog 2 (1 mM in H2O). The reaction solutions were stirred at RT, 40° C. and 80° C. for 2 h. Each sample was diluted 5-fold in 50% methanol, 0.1% formic acid and loaded into a 500 μL syringe. A Thermo Vantage triple quadrupole mass spectrometer (Thermo Scientific), equipped with an HESI spray source was coupled to an Accela HPLC system (Thermo Scientific). Mobile phase A consisted of 0.1% formic acid and mobile phase B consisted of 0.1% formic acid in methanol. Isocratic flow was set to 50% B at 200 μL/min. 200 μl samples were injected into the LC flow line via syringe pump at 10 μL/min and electrosprayed into the Vantage triple quadrupole mass spectrometer. A spray voltage of 4.3 kV was used along with a capillary temperature of 350° C. Each full MS scan was 0.5 s and data were collected with a scan range of 200 m/z to 900 m/z over 1 min.

metallothionein = assay: Metallothionein quantitation in liver and brain; assay type: in vivo, mouse; conditions: TX mice
Method: Tissue samples (100 mg liver or 25 mg brain) were rinsed in PBS to remove excess blood and homogenized using a dounce homogenizer on ice (PBS, 1% tween). The samples were centrifuged at 5000×g for 5 minutes and the supernatant was collected. Total protein in the supernatant was measured using Bradford reagent and an equal amount of each sample (based on protein concentration) was used to measure metallothionein levels. Mouse metallothionein Elisa kit was purchased from Lifespan Biosciences, Inc and the assay was performed according to the users manual.

MDA-MB-231 cells [3] = assay: MDA-MB-231 orthotopic xenograft; assay type: in vivo, SCID-beige mice; conditions: mice with TNBC xenograft, 5 mg/kg intraperitoneally every day
Method: MDA-MB-231 cells (2×10^6) were injected orthotopically into mammary fat pads of SCID-beige mice (Tectonic lab) in 15 μl of a 1:1 mixture with DMEM and growth factor-reduced Matrigel (BD Biosciences). The animals were randomly assigned to three groups to receive saline (control), DPM-1001 (5 mg/kg) or DPM-1003 (5 mg/kg) intraperitoneally everyday once the tumors reached about 200 mm^3. Tumor growth was monitored every third day and volume in mm^3 was measured three times weekly by palpation using the formula: volume=width^2×length/2. Once the tumor volume reached above 500 mm^3 in saline treated mice, the study was terminated. Tumors from all mice were removed for biochemical analysis.

MDA-MB-231 cells [4] = assay: Cell survival; assay type: cell-based
Method: The MTT assay was used to evaluate cell survival in the absence and presence of different compounds. The thiazolyl blue tetrazolium bromide (MTT) was dissolved in phosphate buffered saline (PBS) at a concentration of 5 mg/ml, filtered, and stored at 4° C. About 10,000 cells were seeded into a 96-well plate and cultured in growth medium containing serum. After 24 hours, cells were treated with the indicated concentrations of DPM-1001 or DPM-1003 (0-100 uM) for 2 hrs. Following which 20 μl MTT was added into each well. An ELISA plate reader (Biotek, Winooski, Vermont, USA) was used to measure the optical density at 490 nm.
MDA-MB-231 cells (1×10^5) were seeded in 6 cm plates in growth medium. The cells were untreated or treated with DPM-1001 (0.5, 1, 2 and 5 μM), DPM-1003 (0.5, 1, 2 and 5 μM) or TTM (25, 50, 100 μM) for 1 h. Following which, media was gently aspirated and cells were washed with PBS. To each plate 0.5 ml of crystal violet (0.5%) was added and incubated in dark for 10 minutes at room temperature. The staining solution was removed and plates were washed with PBS (three times). The cells stained with the dye were imaged.

[5] = Glucose tolerance and insulin tolerance tests; assay type: in vivo, C57Bl6/J mice; conditions: HFD-fed mice, orally or intraperitoneally
Method: (§1) All protocols were approved by the Institutional Animal Use and Care Committee of Cold Spring Harbor laboratory. 10 week-old male mice fed chow diet or high-fat diet (D12492) were acclimatized for 10 days under standard conditions before experiments. Mice were injected intraperitoneally (i.p.) once daily with vehicle, 5 mg/kg of DPM-1001 intraperitoneally or orally for 50 days. Mice were euthanized after 6 h of fasting, and serum samples were collected to measure the metabolic parameters and tissue samples were collected for studying changes in signaling.
Glucose in tail blood was measured using a glucometer (One-Touch Basic; Lifescan, CA). For glucose tolerance tests (GTTs), mice were fasted for 10 hours and then injected 20% D-glucose (2 mg/g body weight) and the blood glucose was monitored immediately before and at 15, 30, 60 and 120 mins following the injection. For insulin tolerance tests (ITTs), 4-h fasted animals were given insulin (0.75 mU/g) and blood glucose was measured immediately before and at 30, 60 and 120 minutes postinjection. Statistical analysis was performed using ANOVA for both GTT and ITT.

[6] = Body weight in diet-induced obesity; assay type: in vivo, C57Bl6/J mice
Method: as §1

JAK2 = assay: Leptin signaling in hypothalamus of treated mice; assay type: in vivo; conditions: leptin-induced
Method: Technology (JAK2, catalog 3230, clone D2E12; p-T308 AKT (catalog 13038, clone D25E6); AKT (catalog 4691, clone C67E7) and Sigma-Aldrich (actin, catalog A2228, clone AC-74).
as §1

## COC(=O)CCC(C)C1CCC2C3C(O)CC4CC(NCCCCNCc5ccccn5)CCC4(C)C3CCC12C (stereo not shown) [DPM-1001]
[1]
  protection from copper-induced cell death: able to rescue cells from copper-induced cell death
[2]
  complex formation with other metals: none formed a complex with the compound
metallothionein
  metallothionein levels: prevents elevated metallothionein expression in liver; also recorded: lowered metallothionein levels in the liver and the brain
MDA-MB-231 cells [3]
  tumor volume / tumor size: reduced tumor volume; also recorded: inhibition of tumor size; also recorded: shrank the size of such tumors
MDA-MB-231 cells [4]
  survival of MDA-MB-231 cells: inhibiting survival; also recorded: inhibition of survival
[5]; D-glucose 2 mg/g
  glucose tolerance: lower rise in blood glucose levels; also recorded: improved glucose tolerance
[5]; insulin 0.75 mU/g
  insulin sensitivity (insulin tolerance test): enhanced the effect of insulin to reduce blood glucose levels; also recorded: improved
[6]; chow diet
  weight loss in chow fed mice: without weight loss; also recorded: no weight loss
[6]; high fat diet-fed mice
  onset of weight loss: started losing weight within five days of treatment
JAK2
  phosphorylation of JAK2: increased leptin-induced JAK2 phosphorylation; also recorded: enhanced phosphorylation of JAK2
